# Measurements: the supplement of paper PMC4862054
# How the values were obtained:
# Conditions in all cases: incubation time: 72 h
# HDQ-P1 [1] = experiment: normalised response (% of control), CellTiter-Glo; higher = more viable cells (100 = DMSO, 0 = benzethonium chloride kill control)
# Experimental: (§1)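 DSRT, 72 h incubation, CellTox Green / CellTiter-Glo readout. Signal is normalised to DMSO and benzethonium chloride controls. Value is the normalised response at the highest dose.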
# HCC1143 [2] = experiment: as above
# Experimental: as §1
# SK-BR-3 = experiment: as above
# Experimental: as §1
# BT-549 [3] = experiment: as above
# Experimental: as §1
# Hs578T [4] = experiment: as above
# Experimental: as §1
# HCC1599 [5] = experiment: as above
# Experimental: as §1
# MFM-223 [6] = experiment: as above
# Experimental: as §1
# CAL-85-1 [7] = experiment: as above
# Experimental: as §1
# CAL-120 [8] = experiment: as above
# Experimental: as §1
# CAL-148 [9] = experiment: as above
# Experimental: as §1
# HCC1937 [10] = experiment: as above
# Experimental: as §1
# MCF-10A [11] = experiment: as above
# Experimental: as §1
# CAL-51 [12] = experiment: as above
# Experimental: as §1
# MDA-MB-231 [13] = experiment: as above
# Experimental: as §1
# BT-474 [14] = experiment: as above
# Experimental: as §1
# MDA-MB-453 [15] = experiment: as above
# Experimental: as §1
# MDA-MB-436 [16] = experiment: as above
# Experimental: as §1
# DU-4475 [17] = experiment: as above
# Experimental: as §1
# MDA-MB-468 [18] = experiment: as above
# Experimental: as §1
# HDQ-P1 [19] = experiment: normalised response (% of control), CellTox Green; higher = less cell death (100 = DMSO, 0 = benzethonium chloride kill control)
# Method in brief: (§2)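 Compound was dispensed into 384-well plates at 5 concentrations in 10-fold steps spanning a 10,000-fold range specific to that compound. Breast cancer cell lines were added as 20 µl suspension and left for 72 h before CellTox Green fluorescence (485/520 nm) and then CellTiter-Glo luminescence, read after 10 min at room temperature. Each reported value is the normalised signal at one concentration, with 0.1 % DMSO set at 100 and a positive kill control at 0 on each plate.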
# HCC1143 [20] = experiment: as above
# Method in brief: as §2
# BT-549 [21] = experiment: as above
# Method in brief: as §2
# Hs578T [22] = experiment: as above
# Method in brief: as §2
# HCC1599 [23] = experiment: as above
# Method in brief: as §2
# MFM-223 [24] = experiment: as above
# Method in brief: as §2
# CAL-85-1 [25] = experiment: as above
# Method in brief: as §2
# CAL-120 [26] = experiment: as above
# Method in brief: as §2
# CAL-148 [27] = experiment: as above
# Method in brief: as §2
# HCC1937 [28] = experiment: as above
# Method in brief: as §2
# MCF-10A [29] = experiment: as above
# Method in brief: as §2
# CAL-51 [30] = experiment: as above
# Method in brief: as §2
# MDA-MB-231 [31] = experiment: as above
# Method in brief: as §2
# BT-474 [32] = experiment: as above
# Method in brief: as §2
# MDA-MB-453 [33] = experiment: as above
# Method in brief: as §2
# MDA-MB-436 [34] = experiment: as above
# Method in brief: as §2
# DU-4475 [35] = experiment: as above
# Method in brief: as §2
# MDA-MB-468 [36] = experiment: as above
# Method in brief: as §2
SMILES,normalised response (HDQ-P1 [1]) [%],normalised response (HCC1143 [2]) [%],normalised response (SK-BR-3) [%],normalised response (BT-549 [3]) [%],normalised response (Hs578T [4]) [%],normalised response (HCC1599 [5]) [%],normalised response (MFM-223 [6]) [%],normalised response (CAL-85-1 [7]) [%],normalised response (CAL-120 [8]) [%],normalised response (CAL-148 [9]) [%],normalised response (HCC1937 [10]) [%],normalised response (MCF-10A [11]) [%],normalised response (CAL-51 [12]) [%],normalised response (MDA-MB-231 [13]) [%],normalised response (BT-474 [14]) [%],normalised response (MDA-MB-453 [15]) [%],normalised response (MDA-MB-436 [16]) [%],normalised response (DU-4475 [17]) [%],normalised response (MDA-MB-468 [18]) [%],normalised response (HDQ-P1 [19]) [%],normalised response (HCC1143 [20]) [%],normalised response (BT-549 [21]) [%],normalised response (Hs578T [22]) [%],normalised response (HCC1599 [23]) [%],normalised response (MFM-223 [24]) [%],normalised response (CAL-85-1 [25]) [%],normalised response (CAL-120 [26]) [%],normalised response (CAL-148 [27]) [%],normalised response (HCC1937 [28]) [%],normalised response (MCF-10A [29]) [%],normalised response (CAL-51 [30]) [%],normalised response (MDA-MB-231 [31]) [%],normalised response (BT-474 [32]) [%],normalised response (MDA-MB-453 [33]) [%],normalised response (MDA-MB-436 [34]) [%],normalised response (DU-4475 [35]) [%],normalised response (MDA-MB-468 [36]) [%]
CCc1cncnc1N1CCN(Cc2nc3ccc(C(F)(F)F)cc3[nH]2)CC1 (10000 nM),102,90,89.5,83.9,95.7,85.7,78.3,91.8,89,95.4,82.1,93.8,49.3,95,85.8,81.6,95.7,89.9,70,63.1,117,95.6,72.9,99.2,103,67.3,99.6,103,90.2,105,94.5,118,93,99.9,102,104,103
CC[C@@H]1C(=O)N(C)c2cnc(Nc3ccc(C(=O)NC4CCN(C)CC4)cc3OC)nc2N1C1CCCC1 [BI 2536] (1000 nM),66.6,39.3,26.9,28.3,24.2,26.5,55.6,44.7,52.5,79.9,74.7,44.4,31.7,72.4,75.9,58.9,73.8,75.6,42.3,93,113,90.3,29.2,92.2,90.7,43.9,79.6,70.4,109,100,32,101,97.5,101,102,95.1,98.3
O=C(O)CCCCC(CCSCc1ccccc1)SCc1ccccc1 (stereo not drawn) [CPI-613] (10000 nM),106,100,106,96.5,99.2,101,102,97.5,104,105,108,103,97.5,93.6,98.9,105,98.2,100,98.2,104,92.7,80.4,94.3,102,97.6,88.7,98.6,99.7,80.9,104,103,90.9,94.8,104,91.2,98.8,131
C=CC(=O)Nc1cc2c(Nc3ccc(F)c(Cl)c3)ncnc2cc1OCCCN1CCOCC1 [Canertinib] (10000 nM),1.5,24.3,24.4,4.73,17.4,66.4,26.4,3.6,26.6,42.9,14.5,0.13,3.06,5,15.9,25.5,22.2,74.1,2.49,37.8,84.5,55.1,-21.7,111,26.9,-11,31,65.4,80.3,-28.8,5.47,13.5,55.4,87.6,87.1,89.5,-36.9
COc1cc2c(Oc3ccc4[nH]c(C)cc4c3F)ncnc2cc1OCCCN1CCCC1 [Cediranib] (1000 nM),80.8,99.8,106,83.6,84.7,92.8,56.6,100,90.4,110,91.7,70.5,128,105,104,103,100,95.5,90.8,102,123,97.4,127,112,91.4,78.4,88.1,101,114,91.5,96.8,117,95.7,105,94.6,103,153
Cc1ccc(-c2cc(C(F)(F)F)nn2-c2ccc(S(N)(=O)=O)cc2)cc1 [Celecoxib] (10000 nM),89.8,108,97.4,104,97.3,109,93.5,102,106,99.9,101,108,118,96.8,92.9,94.7,104,101,103,105,68.4,113,68.1,103,95.2,104,101,101,116,82.2,107,104,93,99,99.8,99.5,62.7
O=C(/C=C/c1cccnc1)NCCCCC1CCN(C(=O)c2ccccc2)CC1 [Daporinad] (1000 nM),15.9,13.2,110,103,6.81,0.76,4.89,14.3,14,51.5,17.5,9.14,138,19.2,19.9,14.8,37.5,4.62,0.79,108,105,91.1,73.1,90.5,88.1,93.5,101,98.8,67.6,93.1,108,117,97.5,99.5,97.3,101,49.6
Nc1ncn([C@H]2C[C@H](O)[C@@H](CO)O2)c(=O)n1 [Decitabine] (10000 nM),87.8,83.6,77.7,75.2,89.4,94.1,93.3,84.5,83.9,82.6,74.9,83.8,82.3,93,87.4,97.7,88.7,86.2,31.5,110,117,130,123,113,90.5,70,103,95.5,113,92.6,65.7,126,94,103,73.2,104,90
Nc1ccccc1NC(=O)c1ccc(CNC(=O)OCc2cccnc2)cc1 [Entinostat] (10000 nM),73.2,19,14.2,31.6,48.3,32.3,18,41.7,73.2,29.8,67.4,82.9,31.8,39.1,42,21.6,71.6,5.86,19.1,102,104,69.9,110,75.2,74.4,8.15,88.6,46.4,43.6,90.9,29,29.8,54.9,90.6,38.9,73.1,-141
